Results: US20090197942A1, “Method For Producing Polyphenol-Rich Composition” (KYUSAI CO., LTD., priority 2006, published 2009)

Tested on: spontaneously hypertensive rats (SHR)
Assay: Test for inhibiting hypertension in rats (systolic BP at the tail pulse), SHR
Format: in vivo
Details: for changes in blood pressure (inhibition of hypertension): male SHR, oral once a day for 8 weeks, quercetin 0.3-2.7 mg/day/kg and/or arginine 0.03-0.15 mg/day/kg, FIG. 2
Procedure: Quercetin was extracted by adding 100 g of washed onion skins to 10 liters of water heated to 80° C., and impurities were removed to obtain quercetin-containing solution. The amount of quercetin contained in the quercetin-containing solution was 0.1 mg/ml. The quercetin-containing solution was appropriately concentrated with an evaporator.
11 week old male spontaneously hypertensive rats (SHR) were divided into A to I groups (9 groups consisting of 5 rats per group) and 11 week old male normotensive Wistar Kyoto (WKY) rats were divided into J to L groups (3 groups consisting of 5 rats per group) so that averages of weight and blood pressure (BP) of the respective groups were nearly equal. They were pre-bred in each breeding cage at 22.0±1.0° C. temperature, 60±10% of humidity and 12 hour light-dark cycles for a week while taking feeds and water ad libitum.
After the pre-breeding period, they were bred with the same conditions for 8 weeks. The quercetin-containing solution obtained in the above-mentioned preparation method and commercially-available arginine powder (produced by Ajinomoto Co., Inc.) were blended together so that amounts of quercetin and arginine would be the respective amounts in Table 7, below. Each mixture was orally administered to the rats in each group once a day. The rats took feed and water ad libitum during the test.
The blood pressure (BP) of rats was measured once a week. After each rat was warmed and climatized itself in a warmer at 38° C. for a few minutes, a systolic BP at the tail pulse was measured with an automatic sphygmomanometer (BP-98A; Softron Co., Ltd.) In each rat, the BP was measured for three times per one measurement and an average of the three measured values was recorded.

## O=c1c(O)c(-c2ccc(O)c(O)c2)oc2cc(O)cc(O)c12 [quercetin]
  changes in blood pressure (inhibition of hypertension): hypertensions were inhibited

## N=C(N)NCCC[C@H](N)C(=O)O [arginine]
  changes in blood pressure (inhibition of hypertension): hypertensions were inhibited

## O=c1c(O)c(-c2ccc(O)c(O)c2)oc2cc(O)cc(O)c12 [purified quercetin, quercetin]
Same test, purified quercetin used instead of the quercetin-containing solution
  inhibition of hypertension with purified quercetin instead of quercetin-containing solution: a similar result can be achieved
